Legend:
[1] = test system: colorectal (HCT116 and SW620) cell line models; assay: MTS growth inhibition assay; format: cell-based; conditions: 5-FU between 0 and 100 μmol/L; both colorectal cancer cell lines
Experimental: The Cell Titer AQueous MTS assay (Promega) is carried out according to the manufacturers guidelines. […] The combination effect is determined by the combination index (CI) method utilizing Calcusyn software (Biosoft, Ferguson, Mo.). Fraction affected (FA) is calculated from the percent growth inhibition: FA=[…]. CI values <1, synergism; 1-1.2, additive and >1.2, antagonism.
MTS growth inhibition assays are performed to evaluate the effectiveness of the test compounds alone and in combination with the fluoropyrimidine thymidylate synthase (TS) inhibitor 5-fluorouracil (5-FU) at inhibiting the growth of colorectal (HCT116 and SW620) cell line models. […] Simultaneous treatment with increasing concentrations of 5-FU and a test compound at fixed concentrations of 25 μmol/L is determined.

[2] = test system: colorectal (HCT116), breast (MCF-7) and non-small cell lung (H1299, A549, H358 and H460) cell line models; assay: Colony forming assay; format: cell-based; conditions: FUdR between 0.5 and 2.5 μmol/L; all cell lines evaluated
Experimental: Colony forming assay showing the ability of colon (SW620, HCT116), non-small cell lung (A549, H460, H1299 and H358) and breast (MCF7) cancer cells to survive and proliferate following transient 24 hour exposure to test compounds, FUdR and combinations are determined. Specifically, cells are seeded at densities between 50 and 100 cells/well in 24-well plates. Twenty-four hours later, cells are treated with increasing concentrations of a rtest compound, a fixed dose of FUdR and combinations of these. After 24 hours, drug is removed, cells are rinsed and allowed to outgrow for 10-14 days. At the conclusion of the outgrowth, cells are fixed in 60% ice cold methanol and stained with 0.1% crystal violet, scanned and counted. Data is presented as percentage of untreated controls (mean±SD). Fraction affected and combination indexes are calculated according to the method of Chou and Talalay where <1 is indicative of a synergistic drug interaction.
Colony forming assays are performed to evaluate the effectiveness of test compounds alone and in combination with the fluoropyrimidine thymidylate synthase (TS) inhibitor fluorodeoxyuridine (FUdR) at reducing cancer cell viability in colorectal (HCT116), breast (MCF-7) and non-small cell lung (H1299, A549, H358 and H460) cell line models. […]

[3] = target: recombinant human deoxyuridine nucleotidohydrolase (dUTPase) (Homo sapiens (Human), UniProt P33316); assay: fluorescence-based dUTPase inhibition assay; format: biochemical; conditions: mean over three concentrations, typically 100, 50 and 25 μmol/L, compared to in-run positive control
Source text: Recombinant human deoxyuridine nucleotidohydrolase (dUTPase) is expressed and purified as described in Ladner R D, Carr S A, Huddleston M J, McNulty D E, Caradonna S J. J Biol Chem. 1996 Mar. 29; 271(13):7752-7. All drugs stocks are aliquoted and diluted as appropriate prior to use. The oligonucelotide primer, templates and fluorophore- and quencher-labeled detection probes are synthesized by Integrated DNA Technologies (Coralville, Iowa), subjected to polyacrylamide gel electrophoresis purification and reconstituted in Omnipur sterile nuclease-free water (EMD Chemicals USA, Gibbstown N.J.) at a stock concentration of 100 μmol/L. The two non-emissive (dark) quenching molecules incorporated into the detection probes include the Iowa black fluorescein quencher (IBFQ; absorption max 531 nm) and ZEN (non-abbreviation; absorption max 532 nm). The fluorescent label utilized is 6-FAM (5′-carboxyfluorescein; excitation max.=494 nm, emission max.=520 nm). Probes are further diluted to a working stock of 10 μmol/L and aliquoted to avoid repeated freeze/thaw cycles. AmpliTaq Gold DNA Polymerase, GeneAmp 10×PCR Buffer 2, MgCl2 and MicroAmp Optical 96-well Reaction Plates are purchased from Applied Biosystems (Carlsbad, Calif.). dNTPs are purchased individually at stock concentrations of 100 mmol/L from New England Biolabs at HPLC-certified >99% purity (Ipswich, Mass.).
Reaction mixtures contained primer, probe and template at an equimolar final concentration of 0.4 μmol/L. Magnesium chloride (MgCl2) is included at a final concentration of 2 mmol/L. Non-limiting dNTPs are included in the reaction mix in excess at a final concentration of 100 μmol/L (dUTP/dTTP is excluded). AmpliTaq Gold DNA polymerase is added at 0.875 U/reaction, 2.5 μl of 10×PCR buffer 2 added and nuclease-free ddH2O added to a final reaction volume of 25 μl. For dUTP inhibition analysis, the volume of ddH2O is further modified to accommodate an additional 1 μl of dUTPase (10 ng/μl) and 1 μl of inhibitor or DMSO control. Thermal profiling and fluorescence detection is performed using a customized thermal program on board a Roche Lightcycler LC480 Instrument II. For analysis of dNTPs, the thermal profile consisted of an 8 min 37° C. step followed by a 10 min 95° C. step to ‘hot-start’ the Taq polymerase and a primer extension time of up to 30 min at 60° C. Raw fluorescence spectra for 6-FAM is measured at specified time intervals to follow assay progression on board a Roche LightCycler 480 Software Version 1.5 and exported and analyzed in Microsoft Excel (Microsoft, Redmond Wash.) and Prism (GraphPad Software, La Jolla Calif.). Fluorescence values for blank reactions (limiting dNTP omitted) are subtracted to give normalized fluorescence units (NFU) to account for background fluorescence.
Test compounds are screened in a fluorescence-based assay. The assay employs a DNA polymerase-based approach utilizing an oligonucleotide template with 3 distinct regions: a 3′ primer binding region, a mid-template dUTP/thymidine triphosphate (TTP) detection region and a 5′ 6-[…] (FAM)-labeled probe binding region that incorporates a black hole quenching moiety. During the reaction, the probe and primer hybridize to the oligonucleotide template to form the template:primer:probe complex. When Taq polymerase binds to the primer in the TPP complex and dUTP is present, successful extension of the nascent strand occurs and the inherent 5′ to 3′ exonuclease activity of Taq polymerase cleaves and displaces the 6-FAM-labeled probe in a 5′ to 3′ direction, releasing the 6-FAM fluorophore from its proximity to the three quenchers. This displacement effectively disrupts the Förster resonance energy transfer (FRET) and the resulting fluorescence detected upon excitation is directly proportional to the amount of the dUTP available in the assay for incorporation. […]

Sequence of recombinant human deoxyuridine nucleotidohydrolase (dUTPase) (P33316 other isoform, or with tags, fused parts or gaps): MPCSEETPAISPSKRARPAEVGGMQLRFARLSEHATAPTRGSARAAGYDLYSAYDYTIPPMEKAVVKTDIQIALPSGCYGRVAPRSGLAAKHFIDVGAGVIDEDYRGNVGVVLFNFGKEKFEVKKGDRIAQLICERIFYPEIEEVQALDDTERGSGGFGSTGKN

Row | SMILES | % relative inhibition vs. positive control [3] [%] | also measured
1 | O=c1[nH]cc(F)c(=O)[nH]1 [5-FU, 5-fluorouracil] |  | growth inhibition [1]: dose-dependent increases in growth inhibition
2 | O=c1[nH]c(=O)n([C@H]2C[C@H](O)[C@@H](CO)O2)cc1F [FUdR, fluorodeoxyuridine] |  | colonies formed [2]: dose-dependent decreases in colonies formed
3 | CC(C)COc1cc([C@@H](C)NS(=O)(=O)CCCCCN2C(=O)NC(=O)[C@H]2C)ccc1F [Compound 108b, N—((R)-1-(4-fluoro-3-isobutoxyphenyl)ethyl)-5-((R)-5-methyl-2,4-dioxoimidazolidin-1-yl)pentane-1-sulfonamide] | 94 | 
4 | CC(C)COc1cc([C@@H](C)NS(=O)(=O)CC/C=C/CN2C(=O)NC(=O)[C@H]2C)ccc1F [Compound 108a, (E)-N—((R)-1-(4-fluoro-3-isobutoxyphenyl)ethyl)-5-((R)-5-methyl-2,4-dioxoimidazolidin-1-yl)pent-3-ene-1-sulfonamide] | 123 | 
5 | CC(C)COc1cc([C@@H](C)NS(=O)(=O)CCCOCN2CC(=O)NC2=O)ccc1F [Example 116, (R)-3-((2,4-dioxoimidazolidin-1-yl)methoxy)-N-(1-(4-fluoro-3-isobutoxyphenyl)ethyl)propane-1-sulfonamide] | 173 | 
6 | CC1(C)C(=O)NC(=O)N1C/C=C/CCS(=O)(=O)NC1(c2ccc(F)c(OCC3CC3)c2)CC1 [119a, (E)-N-(1-(3-(cyclopropylmethoxy)-4-fluorophenyl)cyclopropyl)-5-(5,5-dimethyl-2,4-dioxoimidazolidin-1-yl)pent-3-ene-1-sulfonamide] | 10 | 
7 | C[C@H](NS(=O)(=O)CCCCCN1CC(=O)NC1=O)c1ccc(F)c(OCCC2CC2)c1 [compound 128, (S)—N-(1-(3-(2-cyclopropylethoxy)-4-fluorophenyl)ethyl)-5-(2,4-dioxoimidazolidin-1-yl)pentane-1-sulfonamide] | 53 | 

Source: US10858344B2, “Hydantoin containing deoxyuridine triphosphatase inhibitors” (CV6 Therapeutics (NI) Limited, priority 2016, dated 2020)
